Test system: 0.3 M asialo-COO^− glycopeptide-BSA neoglycoproteins
Experiment: ELISA binding of purified proteins to immobilized carboxylated bovine lung glycans
Conditions: FIG. 19 or data not shown
Experimental: In additional ELISA experiments, 96-well plates were coated with 0.3 M asialo-COO^− glycopeptide-BSA neoglycoproteins (250 ng/well) for 4 h at 37° C. (control wells had BSA alone) and blocked with 3% BSA in PBS overnight. The wells were then incubated with purified human annexin I or S100A8/A9 complexes (as appropriate), in 10 mM HUES buffer pH 7.5 containing 150 mM NaCl, 5 mM KCl, 1.2 mM MgCl2 and 1.3 mM CaCl2, in the absence or presence of varying concentrations of 0.3 M asialo-COO^− glycopeptides or 0.3 M asialo-CONHMe-glycopeptides for 2 h at room temperature. This was followed by incubation with anti-bovine annexin I antibody or anti-human S100A8 or anti-S100A9 for 2 h at room temperature. Wells were then washed and incubated with alkaline phosphatase conjugated goat anti-mouse IgG, followed by development with p-nitrophenyl phosphate substrate.
In this Example, experiments conducted to assess amphoterin binding to COO^− glycopeptide coated plates was assayed as described earlier for annexin I and S100 proteins. In addition, bound protein was detected using anti-amphoterin. mAbGB3.1 binding to sRAGE was assessed by first coating sRAGE on microtiter wells for 4 h at 37° C. After blocking with 3% BSA in PBS overnight, wells were incubated with mAbGB3.1 in the presence and absence of COO^−or CONHMe-glycopeptide and developed as described above.

binding to immobilized carboxylated vs neutralized glycans	Compound
remained constant	S100A1: other S100 protein
does not show specific binding	S100A8: recombinant S100A8 alone
remained constant	S100B: other S100 protein

Test system: mAbGB3.1
Experiment: Inhibition ELISA of mAbGB3.1 binding to bovine lung proteins / immobilized BSA neoglycoproteins
Set-up: species or system mouse
Conditions: at 1 to 5 mM
Experimental: Binding in the absence of inhibitor was defined as 100%. […] Binding at pH 7.0 was defined as 100% for each. […] Binding in the absence of inhibitor was defined as 100%.
In these ELISAs, 96-well plates were coated with 250 ng of BSA neoglycoproteins at incubated either for 6 h at room temperature, or 4 h at 37° C. Plates were washed and blocked with 3% BSA in PBS overnight, incubated with hybridoma culture supernatants or with purified IgG diluted in PBS containing 1% BSA and 0.05% Tween 20. Incubations were for 1-2 h at room temperature, or overnight at 4° C. The plates were then washed and incubated with alkaline phosphatase conjugated goat anti-mouse IgG, followed by development with p-nitrophenyl phosphate substrate. Absorbance was measured at 405 nm in an ELISA plate reader.
Briefly, 96-well plates were coated with 50 ng of bovine albumin (BSA) neoglycoproteins containing total bovine lung glycopeptides coupled to BSA using glutaraldehyde for 4 h at 37° C. The neoglycoproteins were prepared for immunization screening as described above.
Plates were washed and blocked with 3% BSA in phosphate-buffered saline (PBS) overnight at 4° C. […] The plates were then washed and incubated with alkaline phosphatase conjugated goat anti-mouse IgG, followed by development with p-nitrophenyl phosphate substrate. Absorbance was measured at 405 nm in an ELISA plate reader.

Compound	inhibition of mAbGB3.1 binding by glycosaminoglycan-like compounds
N[C@H]1C(O)O[C@H](CO)[C@H](O)[C@@H]1O (stereo partly shown) [Chondrosarnine, chondrosamine]	do not inhibit binding
chondroitin sulfate	do not inhibit binding
hyaluronic acid [hyaluronic acid (tetramer and octamer)]	do not inhibit binding

Same assay, conditions: low mM concentrations, pH 7.5; FIG. 2 Panel C

inhibition of mAbGB3.1 reactivity by carboxylic acids	Compound
inhibited	O=C(O)CN(CCN(CC(=O)O)CC(=O)O)CC(=O)O [EDTA, ethylenediamine tetraacetic acid]
inhibited	CC(=O)O [acetate]
inhibited	O=C(O)CC(O)(CC(=O)O)C(=O)O [citrate]
did not inhibit binding	O=C[C@H](O)[C@@H](O)[C@@H](O)[C@H](O)C(=O)O [galacturonic acid]
did not inhibit binding	O=C[C@H](O)[C@@H](O)[C@H](O)[C@H](O)C(=O)O [glucuronic acid]
did not inhibit binding	CC(O)C(=O)O (stereo not shown) [lactic acid]
did not inhibit binding	CC(=O)C(=O)O [pyruvic acid]
inhibited	O=C(O)CCC(=O)O [succinate]

Same assay, conditions: sulfated or phosphorylated sugars tested at or below 5 mM; data not shown

effect on mAbGB3.1 reactivity in the ELISA assay	Compound
unaffected	O=C[C@H](O)[C@@H](O)[C@@H](O)[C@H](O)COP(=O)(O)O [Gal-6-phosphate, galactose-6-phosphate]
unaffected	O=C[C@H](O)[C@@H](O)[C@@H](O)[C@H](O)COS(=O)(=O)O [Gal-6-sulfate, galactose-6-sulfate]
unaffected	O=P(O)(O)O[C@H]1O[C@H](CO)[C@@H](O)[C@H](O)[C@H]1O [Glc-1-phosphate, glucose-1-phosphate]
unaffected	O=C[C@H](O)[C@@H](O)[C@H](O)[C@H](O)COP(=O)(O)O [Glc-6-phosphate, glucose-6-phosphate]
unaffected	O=C[C@H](O)[C@@H](O)[C@H](O)[C@H](O)COS(=O)(=O)O [Glc-6-sulfate, glucose-6-sulfate]
unaffected	CC(=O)N[C@H]1C(OP(=O)(O)O)O[C@H](CO)[C@@H](O)[C@@H]1O (stereo partly shown) [GlcNAc-1-phosphate, glucose-N-acetyl-1-phosphate]
unaffected	CC(=O)N[C@H]1C(O)O[C@H](COP(=O)(O)O)[C@@H](O)[C@@H]1O (stereo partly shown) [GlcNAc-6-phosphate, glucose-N-acetyl-6-phosphate]
unaffected	O=C[C@@H](O)[C@@H](O)[C@H](O)[C@H](O)COP(=O)(O)O [Man-6-phosphate, mannose-6-phosphate]
